From patent US11999727B2 (Tango Therapeutics, Inc., priority 2020, dated 2024)

What was measured:
[1] = tested on: HAP1 MTAP-deleted cell line; assay: Viability assay, MTAP-deleted cell line; format: cell-based; settings: Homo sapiens, HAP1, viability assay, MTAP-deleted cell line; read-out: HAP1 MTAP deleted viability
Excerpt: Table 1 additionally indicates IC50 values in a viability assay for the MTAP-deleted cell line (column 10), indicating the effect of treatment with compound on cell survival.

PRMT5 [2] = target: T1, PRMT5 (Homo sapiens, UniProt O14744); assay: PRMT5 biochemical IC50 assay with no cofactor; settings: PRMT5, no cofactor; read-out: No Cofactor/rel IC50
T1 construct: purchased Viva (custom protein)
T1 sequence (O14744 whole entry): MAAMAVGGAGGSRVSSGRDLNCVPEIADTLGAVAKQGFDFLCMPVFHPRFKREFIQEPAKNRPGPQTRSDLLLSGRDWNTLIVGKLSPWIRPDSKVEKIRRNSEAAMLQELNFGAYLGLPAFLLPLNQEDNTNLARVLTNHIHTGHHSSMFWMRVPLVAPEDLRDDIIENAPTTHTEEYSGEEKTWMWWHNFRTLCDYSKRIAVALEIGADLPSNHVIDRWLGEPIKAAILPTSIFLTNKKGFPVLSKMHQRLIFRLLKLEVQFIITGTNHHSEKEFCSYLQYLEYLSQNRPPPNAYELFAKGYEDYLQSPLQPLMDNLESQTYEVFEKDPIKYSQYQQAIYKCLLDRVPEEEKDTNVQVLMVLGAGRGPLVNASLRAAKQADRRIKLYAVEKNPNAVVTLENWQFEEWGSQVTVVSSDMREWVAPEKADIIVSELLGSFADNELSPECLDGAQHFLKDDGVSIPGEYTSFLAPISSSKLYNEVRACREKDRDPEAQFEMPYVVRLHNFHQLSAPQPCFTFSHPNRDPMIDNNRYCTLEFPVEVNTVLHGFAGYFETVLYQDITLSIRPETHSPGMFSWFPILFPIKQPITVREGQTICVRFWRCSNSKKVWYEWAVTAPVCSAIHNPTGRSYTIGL
T1 sequence (Q9BQA1 whole entry partner): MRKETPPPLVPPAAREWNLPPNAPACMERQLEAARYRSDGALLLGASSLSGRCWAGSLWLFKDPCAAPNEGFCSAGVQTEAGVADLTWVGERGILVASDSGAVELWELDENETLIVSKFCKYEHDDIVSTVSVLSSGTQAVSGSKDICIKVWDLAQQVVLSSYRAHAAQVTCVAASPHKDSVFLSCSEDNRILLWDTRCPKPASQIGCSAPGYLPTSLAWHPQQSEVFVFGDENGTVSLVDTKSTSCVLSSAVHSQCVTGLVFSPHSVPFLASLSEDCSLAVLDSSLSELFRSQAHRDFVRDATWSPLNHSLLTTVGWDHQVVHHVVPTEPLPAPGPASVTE
Excerpt: Table 1 indicates IC50 values (μM) against PRMT5 for exemplary compounds in the presence of SAM as cofactor, with no cofactor, and with MTA as cofactor, respectively (columns 4-6). […] Ki values can be calculated from the IC50 values as described in the Examples section. As detailed in the Examples section, for the assay performed in the presence of SAM, IC50=Ki×1.5 (Ki=IC50/1.5).

PRMT5 [3] = target: T1, PRMT5; assay: PRMT5 biochemical IC50 assay with MTA as cofactor; settings: PRMT5, MTA as cofactor; read-out: MTA IC50
[4] = tested on: HAP1 MTAP-intact cell line; assay: SDMA in-cell western assay, HAP1 MTAP-intact; format: cell-based; settings: Homo sapiens, HAP1, SDMA in-cell western, HAP1 MTAP-intact; read-out: MTAP HAP1 intact IC50
In short: (§1)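 Compounds were tested in HAP1 cells differing only in MTAP status (endogenous expression versus null). Cellular SDMA levels were then measured by in-cell western, giving an IC50 in each background.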

[5] = tested on: HAP1 MTAP-deleted cell line; assay: SDMA in-cell western assay, HAP1 MTAP-deleted; format: cell-based; settings: for IC50: Homo sapiens, HAP1, SDMA in-cell western, HAP1 MTAP-deleted, read-out: HAP1 MTAP deleted IC50; for MTAP intact/deleted ratio: IC50 ratio HAP1 MTAP-intact / HAP1 MTAP-deleted, SDMA in-cell western
In short: as §1

PRMT5 [6] = target: T1, PRMT5; assay: PRMT5 biochemical IC50 assay with SAM as cofactor; settings: PRMT5, SAM as cofactor; read-out: SAM IC50

Q: What does the source list for Cc1cc(NC(=O)C(=O)N2[C@H](C)CCC[C@@H]2c2ccccc2)cnc1N (single isomer, unassigned) [Compound 415]?
A: IC50 [1]: 1000 to 10000 nM; IC50 (PRMT5 [2]): 50 to 500 nM; IC50 (PRMT5 [3]): < 50 nM; IC50 [4]: 100 to 1000 nM; IC50 [5]: < 100 nM; MTAP intact/deleted ratio [5]: A (an IC50 ratio greater than or equal to 10 fold); IC50 (PRMT5 [6]): 50 to 500 nM

Q: Cc1cc(NC(=O)C(=O)N2[C@@H](C)CCC[C@H]2c2ccccc2)cnc1N (single isomer, unassigned) [Compound 417] was tested. Which IC50 [1] did it give?
A: > 10000 nM

Q: What about the IC50 (PRMT5 [2]) of the same compound?
A: > 500 nM

Q: And the IC50 (PRMT5 [3])?
A: 50 to 500 nM

Q: And the IC50 [4]?
A: > 1000 nM

Q: What about the IC50 [5] of the same compound?
A: 100 to 1000 nM

Q: What about the MTAP intact/deleted ratio [5] of the same compound?
A: B (an IC50 ratio greater than or equal to 3 fold but lower than 10 fold)

Q: What about the IC50 (PRMT5 [6]) of the same compound?
A: 50 to 500 nM

Q: How did the IC50 [1] turn out when Cc1c(NC(=O)C(=O)N2[C@@H](C)CCC[C@H]2c2ccccc2)cnc(N)c1C (single isomer, unassigned) [Compound 425] was run?
A: 1000 to 10000 nM

Q: And the IC50 (PRMT5 [2])?
A: 50 to 500 nM

Q: And the IC50 (PRMT5 [3])?
A: < 50 nM

Q: What about the IC50 [4] of the same compound?
A: > 1000 nM

Q: What about the IC50 [5] of the same compound?
A: 100 to 1000 nM

Q: And the MTAP intact/deleted ratio [5]?
A: A (an IC50 ratio greater than or equal to 10 fold)

Q: And the IC50 (PRMT5 [6])?
A: 50 to 500 nM

Q: Which results are given for Cc1cc(NC(=O)C(=O)N2C[C@H](C)CC[C@H]2[C@H]2CC[C@H](O)CC2)cnc1N (single isomer, unassigned) [Compound 431]?
A: IC50 [1]: 1000 to 10000 nM; IC50 (PRMT5 [2]): 50 to 500 nM; IC50 (PRMT5 [3]): < 50 nM; IC50 [4]: > 1000 nM; IC50 [5]: < 100 nM; MTAP intact/deleted ratio [5]: A (an IC50 ratio greater than or equal to 10 fold); IC50 (PRMT5 [6]): 50 to 500 nM

Q: For C[C@@H]1CC[C@@H](c2ccc3c(c2)CCCN3)N(C(=O)C(=O)Nc2cncc(C(N)=O)c2)C1 (single isomer, unassigned) [Compound 432], which IC50 [1] is on record?
A: 1000 to 10000 nM

Q: What about the IC50 (PRMT5 [2]) of the same compound?
A: 50 to 500 nM

Q: What about the IC50 (PRMT5 [3]) of the same compound?
A: < 50 nM

Q: What about the IC50 [4] of the same compound?
A: > 1000 nM

Q: And the IC50 [5]?
A: < 100 nM

Q: What about the MTAP intact/deleted ratio [5] of the same compound?
A: A (an IC50 ratio greater than or equal to 10 fold)

Q: What about the IC50 (PRMT5 [6]) of the same compound?
A: 50 to 500 nM

Q: What does the source list for C[C@H]1CC[C@H](c2ccccc2)N(C(=O)C(=O)Nc2cncc(C(N)=O)c2)[C@H]1C (single isomer, unassigned) [Compound 433]?
A: IC50 [1]: > 10000 nM; IC50 (PRMT5 [2]): > 500 nM; IC50 (PRMT5 [3]): < 50 nM; IC50 [4]: > 1000 nM; IC50 [5]: < 100 nM; MTAP intact/deleted ratio [5]: A (an IC50 ratio greater than or equal to 10 fold); IC50 (PRMT5 [6]): 50 to 500 nM

Q: Cc1cc(NC(=O)C(=O)N2C[C@H](C)CC[C@H]2[C@H]2CC[C@@H](O)CC2)cnc1N (single isomer, unassigned) [Compound 436] was tested. Which IC50 [1] did it give?
A: > 10000 nM

Q: What about the IC50 (PRMT5 [2]) of the same compound?
A: 50 to 500 nM

Q: What about the IC50 (PRMT5 [3]) of the same compound?
A: 50 to 500 nM

Q: What about the IC50 [4] of the same compound?
A: > 1000 nM

Q: What about the IC50 [5] of the same compound?
A: 100 to 1000 nM

Q: And the MTAP intact/deleted ratio [5]?
A: A (an IC50 ratio greater than or equal to 10 fold)

Q: And the IC50 (PRMT5 [6])?
A: 50 to 500 nM

Q: Which IC50 [1] does the source give for C[C@@H]1CC[C@@H](c2ccc(NCC(=O)N(C)C)cc2)N(C(=O)C(=O)Nc2cncc(C(N)=O)c2)C1 (single isomer, unassigned) [Compound 437] here?
A: 1000 to 10000 nM

Q: What about the IC50 (PRMT5 [2]) of the same compound?
A: 50 to 500 nM

Q: And the IC50 (PRMT5 [3])?
A: < 50 nM

Q: And the IC50 [4]?
A: > 1000 nM

Q: What about the IC50 [5] of the same compound?
A: < 100 nM

Q: What about the MTAP intact/deleted ratio [5] of the same compound?
A: A (an IC50 ratio greater than or equal to 10 fold)

Q: And the IC50 (PRMT5 [6])?
A: 50 to 500 nM

Q: Which IC50 [1] does the source give for Cc1c(NC(=O)C(=O)N2[C@H](C)CCC[C@@H]2c2ccccc2)cnc(N)c1C (single isomer, unassigned) [Compound 439] here?
A: 1000 to 10000 nM

Q: What about the IC50 (PRMT5 [2]) of the same compound?
A: 50 to 500 nM

Q: What about the IC50 (PRMT5 [3]) of the same compound?
A: < 50 nM

Q: And the IC50 [4]?
A: > 1000 nM

Q: And the IC50 [5]?
A: < 100 nM

Q: What about the MTAP intact/deleted ratio [5] of the same compound?
A: A (an IC50 ratio greater than or equal to 10 fold)

Q: And the IC50 (PRMT5 [6])?
A: 50 to 500 nM

Q: With C[C@H]1CC[C@H](c2cccc(Cl)c2)N(C(=O)C(=O)Nc2cncc(C(N)=O)c2)C1 (single isomer, unassigned) [Compound 440] as the compound, how does the IC50 [1] read?
A: 1000 to 10000 nM

Q: What about the IC50 (PRMT5 [2]) of the same compound?
A: 50 to 500 nM

Q: And the IC50 (PRMT5 [3])?
A: < 50 nM

Q: What about the IC50 [4] of the same compound?
A: > 1000 nM

Q: And the IC50 [5]?
A: < 100 nM

Q: And the MTAP intact/deleted ratio [5]?
A: A (an IC50 ratio greater than or equal to 10 fold)

Q: And the IC50 (PRMT5 [6])?
A: 50 to 500 nM

Q: Which IC50 [1] does the source give for CNc1ccc([C@@H]2CC[C@@H](C)CN2C(=O)C(=O)Nc2cncc(C(N)=O)c2)cn1 (single isomer, unassigned) [Compound 443] here?
A: < 1000 nM

Q: What about the IC50 (PRMT5 [2]) of the same compound?
A: < 50 nM

Q: And the IC50 (PRMT5 [3])?
A: < 50 nM

Q: And the IC50 [4]?
A: > 1000 nM

Q: And the IC50 [5]?
A: < 100 nM

Q: And the MTAP intact/deleted ratio [5]?
A: A (an IC50 ratio greater than or equal to 10 fold)

Q: And the IC50 (PRMT5 [6])?
A: 50 to 500 nM

Q: COc1ncc(NC(=O)C(=O)N2C[C@H](C)CC[C@H]2c2ccc(F)cc2)cc1C(N)=O (single isomer, unassigned) [Compound 446] was tested. Which IC50 [1] did it give?
A: 1000 to 10000 nM

Q: What about the IC50 (PRMT5 [2]) of the same compound?
A: 50 to 500 nM

Q: What about the IC50 (PRMT5 [3]) of the same compound?
A: < 50 nM

Q: And the IC50 [4]?
A: > 1000 nM

Q: What about the IC50 [5] of the same compound?
A: < 100 nM

Q: And the MTAP intact/deleted ratio [5]?
A: A (an IC50 ratio greater than or equal to 10 fold)

Q: And the IC50 (PRMT5 [6])?
A: 50 to 500 nM
